Reference: publication PMC12284294 (iScience, 2025)
Where two headings read alike, the source gives them in different places.

Key:
FPR1 = target: T1, FPR1 (Homo sapiens, UniProt P21462); format: cell-based
T1 construct: expressed in transfected cells; host or cells: HEK293T
T1 sequence (P21462 1-350): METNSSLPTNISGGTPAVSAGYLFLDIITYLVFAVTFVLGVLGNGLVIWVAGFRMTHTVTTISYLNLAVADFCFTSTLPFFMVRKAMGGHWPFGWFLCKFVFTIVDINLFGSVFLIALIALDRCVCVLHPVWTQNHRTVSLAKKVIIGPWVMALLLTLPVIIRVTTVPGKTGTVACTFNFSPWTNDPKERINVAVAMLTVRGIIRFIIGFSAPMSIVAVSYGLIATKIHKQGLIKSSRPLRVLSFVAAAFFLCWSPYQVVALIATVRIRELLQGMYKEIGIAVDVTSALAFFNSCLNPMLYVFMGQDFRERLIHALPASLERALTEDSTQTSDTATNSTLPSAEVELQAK

[1] = test system: human polymorphonuclear granulocytes (PMN; neutrophils); format: cell-based
[2] = SARS-CoV-2 omicron B.1.1.529 spike pool peptides, 10 µM, PMN, n=6

Row | Sequence | non-activators of FPR1 and PMNs: FPR1 (FPR1) | non-activators of FPR1 and PMNs: PMNs [1, 2] | significant FPR1 activators (group of the spike peptide pool screening) (FPR1) | significant PMN activators (group of the spike peptide pool screening) [1, 2] | non-activators of FPR1 and PMNs: PMNs [1]
1 | NDGVYFASIEKSNII | non-activators of FPR1 and PMNs | non-activators of FPR1 and PMNs |  |  | 
2 | YGSFCTQLKRALTGI | non-activators of FPR1 and PMNs | non-activators of FPR1 and PMNs |  |  | 
3 | KIYSKHTPIIVREPE | non-activators of FPR1 and PMNs | non-activators of FPR1 and PMNs |  |  | 
4 | RFPNITNLCPFDEVF | non-activators of FPR1 and PMNs | non-activators of FPR1 and PMNs |  |  | 
5 | CEFQFCNDPFLDHKN | non-activators of FPR1 and PMNs | non-activators of FPR1 and PMNs |  |  | 
6 | KHTPIIVREPEDLPQ | non-activators of FPR1 and PMNs | non-activators of FPR1 and PMNs |  |  | 
7 | VNHNAQALNTLVKQL | non-activators of FPR1 and PMNs | non-activators of FPR1 and PMNs |  |  | 
8 | GDEVRQIAPGQTGNI | non-activators of FPR1 and PMNs | non-activators of FPR1 and PMNs |  |  | 
9 | LKSYSFRPTYGVGHQ | non-activators of FPR1 and PMNs | non-activators of FPR1 and PMNs |  |  | 
10 | WNSNKLDSKVSGNYN | non-activators of FPR1 and PMNs | non-activators of FPR1 and PMNs |  |  | 
11 | RQIAPGQTGNIADYN | non-activators of FPR1 and PMNs | non-activators of FPR1 and PMNs |  |  | 
12 | ALGKLQDVVNHNAQA | non-activators of FPR1 and PMNs | non-activators of FPR1 and PMNs |  |  | 
13 | CYFPLKSYSFRPTYG | non-activators of FPR1 and PMNs | non-activators of FPR1 and PMNs |  |  | 
14 | DLFLPFFSNVTWFHV |  |  | significant FPR1 activators | significant PMN activators | 
15 | ISTEIYQAGNKPCNG | non-activators of FPR1 and PMNs | non-activators of FPR1 and PMNs |  |  | 
16 | TQTKSHRRARSVASQ | non-activators of FPR1 and PMNs | non-activators of FPR1 and PMNs |  |  | 
17 | PPIKYFGGFNFSQIL | non-activators of FPR1 and PMNs | non-activators of FPR1 and PMNs |  |  | 
18 | IFSRLDKVEAEVQID | non-activators of FPR1 and PMNs |  |  |  | non-activators of FPR1 and PMNs
19 | LYNLAPFFTFKCYGV |  |  | significant FPR1 activators | significant PMN activators | 
20 | LLLQYGSFCTQLKRA | non-activators of FPR1 and PMNs | non-activators of FPR1 and PMNs |  |  | 
21 | GNIADYNYKLPDDFT | non-activators of FPR1 and PMNs | non-activators of FPR1 and PMNs |  |  | 
22 | NGLKGTGVLTESNKK | non-activators of FPR1 and PMNs | non-activators of FPR1 and PMNs |  |  | 

Row | Sequence | non-activators of FPR1 and PMNs: FPR1 (FPR1) | non-activators of FPR1 and PMNs: PMNs [1, 2] | significant FPR1 activators (group of the spike peptide pool screening) (FPR1) | significant PMN activators (group of the spike peptide pool screening) [1, 2] | non-activators of FPR1 and PMNs: PMNs [1]
23 | DLICAQKFKGLTVLP |  |  |  | significant PMN activators | 
24 | FERDISTEIYQAGNK | non-activators of FPR1 and PMNs | non-activators of FPR1 and PMNs |  |  | 
25 | IYQAGNKPCNGVAGF | non-activators of FPR1 and PMNs | non-activators of FPR1 and PMNs |  |  | 
26 | PGQTGNIADYNYKLP | non-activators of FPR1 and PMNs | non-activators of FPR1 and PMNs |  |  | 
27 | GAEYVNNSYECDIPI | non-activators of FPR1 and PMNs | non-activators of FPR1 and PMNs |  |  | 
28 | AQKFKGLTVLPPLLT |  |  | significant FPR1 activators |  | 
29 | VAVLYQGVNCTEVPV | non-activators of FPR1 and PMNs | non-activators of FPR1 and PMNs |  |  | 
30 | VLPFNDGVYFASIEK | non-activators of FPR1 and PMNs | non-activators of FPR1 and PMNs |  |  | 
31 | NKCVNFNFNGLKGTG | non-activators of FPR1 and PMNs | non-activators of FPR1 and PMNs |  |  | 
32 | CTQLKRALTGIAVEQ | non-activators of FPR1 and PMNs | non-activators of FPR1 and PMNs |  |  | 
33 | AQALNTLVKQLSSKF | non-activators of FPR1 and PMNs | non-activators of FPR1 and PMNs |  |  | 
34 | NVTWFHVISGTNGTK |  |  | significant FPR1 activators | significant PMN activators | 
35 | AGICASYQTQTKSHR | non-activators of FPR1 and PMNs | non-activators of FPR1 and PMNs |  |  | 
36 | YQGVNCTEVPVAIHA | non-activators of FPR1 and PMNs | non-activators of FPR1 and PMNs |  |  | 
37 | PFLDHKNNKSWMESE | non-activators of FPR1 and PMNs | non-activators of FPR1 and PMNs |  |  | 
38 | AISSVLNDIFSRLDK | non-activators of FPR1 and PMNs | non-activators of FPR1 and PMNs |  |  | 
39 | APFFTFKCYGVSPTK | non-activators of FPR1 and PMNs | non-activators of FPR1 and PMNs |  |  | 
40 | YFGGFNFSQILPDPS | non-activators of FPR1 and PMNs | non-activators of FPR1 and PMNs |  |  | 
41 | VLNDIFSRLDKVEAE | non-activators of FPR1 and PMNs | non-activators of FPR1 and PMNs |  |  | 
42 | AGFNCYFPLKSYSFR | non-activators of FPR1 and PMNs | non-activators of FPR1 and PMNs |  |  | 
43 | PGTNTSNQVAVLYQG | non-activators of FPR1 and PMNs | non-activators of FPR1 and PMNs |  |  | 
44 | TSNQVAVLYQGVNCT | non-activators of FPR1 and PMNs | non-activators of FPR1 and PMNs |  |  | 

Row | Sequence | non-activators of FPR1 and PMNs: FPR1 (FPR1) | non-activators of FPR1 and PMNs: PMNs [1, 2] | significant FPR1 activators (group of the spike peptide pool screening) (FPR1) | significant PMN activators (group of the spike peptide pool screening) [1, 2] | non-activators of FPR1 and PMNs: PMNs [1]
45 | NTLVKQLSSKFGAIS | non-activators of FPR1 and PMNs | non-activators of FPR1 and PMNs |  |  | 
46 | QTRAGCLIGAEYVNN | non-activators of FPR1 and PMNs | non-activators of FPR1 and PMNs |  |  | 
47 | CVIAWNSNKLDSKVS | non-activators of FPR1 and PMNs | non-activators of FPR1 and PMNs |  |  | 
48 | DYSVLYNLAPFFTFK |  |  | significant FPR1 activators | significant PMN activators | 
49 | PFFSNVTWFHVISGT |  |  | significant FPR1 activators | significant PMN activators | 
50 | KGLTVLPPLLTDEMI |  |  | significant FPR1 activators |  | 
51 | FCNDPFLDHKNNKSW | non-activators of FPR1 and PMNs | non-activators of FPR1 and PMNs |  |  | 
52 | YFASIEKSNIIRGWI | non-activators of FPR1 and PMNs | non-activators of FPR1 and PMNs |  |  | 
53 | KQLSSKFGAISSVLN | non-activators of FPR1 and PMNs | non-activators of FPR1 and PMNs |  |  | 
54 | TYGVGHQPYRVVVLS |  |  | significant FPR1 activators | significant PMN activators | 
55 | LQDVVNHNAQALNTL | non-activators of FPR1 and PMNs | non-activators of FPR1 and PMNs |  |  | 
56 | IYKTPPIKYFGGFNF |  |  |  | significant PMN activators | 
57 | CPFDEVFNATRFASV | non-activators of FPR1 and PMNs | non-activators of FPR1 and PMNs |  |  | 
58 | IEKSNIIRGWIFGTT | non-activators of FPR1 and PMNs | non-activators of FPR1 and PMNs |  |  | 
59 | GNKPCNGVAGFNCYF | non-activators of FPR1 and PMNs | non-activators of FPR1 and PMNs |  |  | 
60 | DFTGCVIAWNSNKLD | non-activators of FPR1 and PMNs | non-activators of FPR1 and PMNs |  |  | 
61 | SFRPTYGVGHQPYRV | non-activators of FPR1 and PMNs | non-activators of FPR1 and PMNs |  |  | 
62 | IAARDLICAQKFKGL |  |  |  | significant PMN activators | 
63 | IIVREPEDLPQGFSA | non-activators of FPR1 and PMNs | non-activators of FPR1 and PMNs |  |  | 
64 | FHVISGTNGTKRFDN | non-activators of FPR1 and PMNs | non-activators of FPR1 and PMNs |  |  | 
